Reference: patent US10421743B2, “Tetrahydroisoquinolines as PRMT5 inhibitors” (CTXT PTY LTD, priority 2016, dated 2019)
Where two headings read alike, the source gives them in different places.

Columns and labels:
[1] = molecular target: Full-length PRMT5 enzyme co-expressed with His6-MEP50 (Homo sapiens (Human), UniProt O14744); experiment: PRMT5 Biochemical Assay (Transcreener EPIGEN methyltransferase, fluorescence polarisation); details: histone H4 derived peptide substrate 1 μM, 1 μM S-Adenosyl methionine, 4 hours at 37 degree Celsius
Experimental: Compounds of the Invention may be Tested for In Vitro Activity in the Following Assay:
A histone H4 derived peptide is used as substrate (amino acid sequence: […]NH2). Full-length PRMT5 enzyme (NCBI Reference sequence NP_006100.2) was co-expressed with His6-MEP50 in insect cells and purified via Nickel immobilized metal affinity and gel filtration chromatography (“the enzyme”).
The 6 μL reactions are run in Greiner brand black 384-well low volume assay plates. All reactions contained assay buffer (phosphate buffered saline, 0.01% (v/v) Tween-20, 0.01% (w/v) albumin from chicken egg white, 1 mM Dithiothreitol, 1 μM peptide substrate, 1 μM S-Adenosyl methionine, and 15 ng/reaction enzyme, with the enzyme being omitted from negative control reactions. Compounds were added in a volume of 100 nL from dilution series prepared in DMSO, positive and negative control reactions receiving the same volume DMSO without compound. The plates were sealed with adhesive seals and incubated for 4 hours at 37 degree Celsius. Reaction progress was measured using the Transcreener™ EPIGEN methyltransferase assay (BellBrook Labs, Madison, Wis.) as recommended by the manufacturer. To each reaction 2 μL detection mix were added, containing coupling enzymes, fluorescence polarisation tracer, and AMP antibody. Plates were incubated for 90 minutes before being read on a Perkin Elmer EnVision™ plate reader in fluorescence polarisation mode. IC50 values were obtained from the raw readings by calculating percent inhibition (% I) for each reaction relative to controls on the same plate (% I=(I−CN)/(CP−CN) where CN/CP are the averages of the negative/positive reactions, respectively), then fitting the % I data vs. compound concentration [I] to % I=(A+((B−A)/(1+((C/[I])^D)))) where A is the lower asymptote, B is the upper asymptote, C is the IC50 value, and D is the slope.

[2] = system: PRMT5 (symmetrical dimethylation of arginine in TE11 cells); experiment: PRMT5 Biomarker Assay (symmetrical dimethylation of arginine, Di-Methyl Histone H4 Arginine 3); assay type: cell-based; details: Homo sapiens, TE-11, 72 hours incubation, anti-Di-Methyl Histone H4 Arginine 3 antibody
Experimental: Compounds of the Invention may be Tested for Potency to Inhibit Symmetrical Dimethylation of Arginine in the Following Assay:
The cell line TE11 was seeded at a density of 6,000 cells per well in 96 well optical quality tissue culture plates in DME medium and 10% foetal bovine serum, and allowed to adhere for 5 hours under standard culture conditions (37 degree Celsius, 5% CO2). Compound dilutions prepared in DMSO were added to the medium, with negative control wells reserved for treatment with DMSO only and maximum inhibition controls receiving a potent PRMT5 inhibitor compound at 1 μM concentration. After incubation for 72 hours, the cells were fixed with 3.7% formaldehyde in PBS for 30 minutes at room temperature, washed with phosphate buffer saline and blocked with Odyssey blocking buffer (LI-COR, Lincoln, Nebr.). Rabbit anti-Di-Methyl Histone H4 Arginine 3 specific antibody (Epigentek) in Odyssey blocking buffer was added and incubated for 14 hours at 4 degree Celsius. After washing, anti-rabbit secondary antibody labelled with Alexa647 dye (LifeTechnologies) and Hoechst 33342 (1 μg/mL, SigmaAldrich) were added for 1 hour incubation. Plates were washed and read on a PerkinElmer Envision 2103 in fluorescence intensity scanning mode (24 scans across the well area). The plates were imaged on a PerkinElmer Phenix high content imaging platform. Using a Columbus image analysis pipeline, individual nuclei were located by Hoechst 33342 stain and the methylation level was calculated from the Alexa647-related intensity in the same area. IC50 values were obtained from the mean Alexa647-related intensity per cell by calculating percent inhibition (% I) for each well relative to controls on the same plate (% I=(I−CN)/(CP−CN) where CN/CP are the averages of the negative/maximum inhibition controls, respectively), then fitting the % I data vs. compound concentration [I] to % I=(A+((B−A)/(1+((C/[I])^D)))) where A is the lower asymptote, B is the upper asymptote, C is the IC50 value, and D is the slope.

[3] = molecular target: Full-length (FL)-PRMT5-MEP50 enzyme complex (Homo sapiens (Human), UniProt O14744); experiment: PRMT5-MEP50 Enzyme Methylation Assay (SAMDI); assay type: biochemical; details: 0.5 nM PRMT5-MEP50, 75 nM biotinylated H4R3(Me1) peptide, 15 μM SAM, 150 minutes at 37° C.
Experimental: PRMT5-MEP50 Enzyme Methylation Assay
PRMT5/MEP50 biochemical assay is a direct measurement of the methylation activity of the enzyme complex on a short peptide substrate derived from the N-terminus of H4 histone. Methylation experiment is performed with recombinant protein. The assessment of inhibitory effect (IC50) of small molecules is measured by the effectiveness of the compounds to inhibit this reaction.
In this assay, the potency (IC50) of each compound was determined from a twenty-point (1:2 serial dilution; top compound concentration of 100000 nM) titration curve using the following outlined procedure. To each well of a white ProxiPlus 384 well-plate, 100 nL of compound (1% DMSO in final assay volume of 10 μL) was dispensed, followed by the addition of 8 μL of 1× assay buffer (50 mM Bicine pH 8.0, 1 mM DTT, 0.004% Tween20, 0.01% BSA) containing 0.5 nM of Full-length (FL)-PRMT5-MEP50 enzyme complex (recombinant proteins from baculovirus-transfected Sf21 cells: FL-PRMT5; MW=[…] and FL-MEP50; MW=38614). Plates were sealed and placed in a 37° C. humidified chamber for 30 minutes pre-incubation with compounds. Subsequently, each reaction was initiated by the addition of 2 μL 1× assay buffer containing 75 nM biotinylated H4R3(Me1) peptide, and 15 μM S-(5′-Adenosyl)-L-Methionine Chloride (SAM). The final reaction in each well of 10 μL consists of 0.5 nM PRMT5-MEP50,75 nM biotinylated-peptide, and 15 μM SAM. Methylation reactions were allowed to proceed for 150 minutes in a sealed plate at 37° C. Reactions were immediately quenched by the addition of 1 μL of 10% formic acid. Plates were then frozen and shipped to SAMDI™ Tech Inc. to determine the percent conversion from […]. IC50 values were determined by 7 parameters biphasic fit model plotting the percent product conversion vs. (Log10) compound concentrations.

[4] = system: PRMT5 (symmetric dimethylation of arginine (SDMA) in MCF-7 cells); experiment: PRMT5 Cell Target Engagement (TE) Assay (SDMA, high content imaging); assay type: cell-based; details: Homo sapiens, MCF7, 72 h, treated for 3 days, top compound concentration of 10000 nM
From the text: PRMT5 Cell Target Engagement (TE) Assay
The PRMT5 TE assay is a biomarker assay for identifying compounds that inhibit symmetric dimethylation of arginine (SDMA) of PRMT5 substrates. This assay detects symmetrically dimethylated nuclear proteins using high content imaging technology. Detection of the expression of symmetrically dimethylated nucleo proteins is through a mixture of primary rabbit monoclonal antibodies to SDMA (CST 13222), which in turn recognized by an Alexafluor 488 dye-conjugated anti-rabbit IgG secondary antibody. The IN Cell Analyzer 2200 measures nuclear Alexafluor 488 fluorescent dye intensity that is directly related to the level of expression of symmetrically dimethylated nuclear proteins at the single cell level. Nuclear AF488 dye intensities are compared to the mean value for DMSO treated cells […] to report percent of inhibition for each compound-treated well.
In this assay, the cell potency (EC50) of each compound was determined from a ten point (1:3 serial dilution; top compound concentration of 10000 nM) titration curve using the following outlined procedure. Each well of a BD falcon collagen coated black/clear bottom 384-well plate was seeded with 4000 MCF-7 cells and allowed to attach for 5 hours. Media from cell plate was removed at 0.5 mm above the bottom of the plate and replaced with 30 μL of fresh media containing 1.2× compounds in 0.1% DMSO. Cells were treated for 3 days in 37° C. CO2 incubator. On day 3, cells were fixed with Cytofix, permeabilized with 0.4% Triton-X-100/Cytofix, and washed with D-PBS without Ca/Mg. Cells were blocked with Licor Odessey blocking reagent for one hour at room temperature, followed by incubation with anti-SDMA (1:1000) antibody at 4° C. overnight. 1° antibody was removed, followed by three washings with DPBS without Ca/Mg and 0.05% Tween20. Hoechst (5 μg/ml), Cell Mask deep stain (1:2000) and Alexa488-conjugated goat anti-rabbit IgG (2 μg/mL) was added for 1 hour at room temperature. A final washing step (three washes) was performed before sealing plate for imaging on In Cell Analyzer 2200. Images from analyzer were uploaded to Columbus (at WP) for image analysis. IC50 values were determined by 4 parameters robust fit of percent fluorescence units vs. (Log10) compound concentrations.

[5] = Enzyme Methylation Assay (EC50—1, nM), first EC50 of biphasic fit
[6] = second EC50 of biphasic fit, read-out: Enzyme Methylation Assay (EC50—2)

Chain of Full-length (FL)-PRMT5-MEP50 enzyme complex (O14744 whole entry): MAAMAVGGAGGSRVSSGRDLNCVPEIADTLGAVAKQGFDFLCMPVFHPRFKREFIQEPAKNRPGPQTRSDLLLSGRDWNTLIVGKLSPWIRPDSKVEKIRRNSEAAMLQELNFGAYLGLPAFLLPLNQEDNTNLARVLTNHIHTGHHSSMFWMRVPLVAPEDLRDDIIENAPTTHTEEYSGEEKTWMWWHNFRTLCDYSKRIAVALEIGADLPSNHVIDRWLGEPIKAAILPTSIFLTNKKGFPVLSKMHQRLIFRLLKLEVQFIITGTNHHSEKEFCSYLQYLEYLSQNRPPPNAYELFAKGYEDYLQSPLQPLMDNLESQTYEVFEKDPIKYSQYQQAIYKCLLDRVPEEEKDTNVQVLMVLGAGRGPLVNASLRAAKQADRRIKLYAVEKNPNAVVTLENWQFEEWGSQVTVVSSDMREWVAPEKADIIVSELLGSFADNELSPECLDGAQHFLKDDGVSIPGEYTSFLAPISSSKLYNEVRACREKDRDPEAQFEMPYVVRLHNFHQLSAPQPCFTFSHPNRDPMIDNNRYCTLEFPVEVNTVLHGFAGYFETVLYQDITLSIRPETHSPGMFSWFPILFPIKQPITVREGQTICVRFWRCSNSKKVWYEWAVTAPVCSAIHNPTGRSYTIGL
Chain of Full-length (FL)-PRMT5-MEP50 enzyme complex (Q9BQA1 whole entry partner): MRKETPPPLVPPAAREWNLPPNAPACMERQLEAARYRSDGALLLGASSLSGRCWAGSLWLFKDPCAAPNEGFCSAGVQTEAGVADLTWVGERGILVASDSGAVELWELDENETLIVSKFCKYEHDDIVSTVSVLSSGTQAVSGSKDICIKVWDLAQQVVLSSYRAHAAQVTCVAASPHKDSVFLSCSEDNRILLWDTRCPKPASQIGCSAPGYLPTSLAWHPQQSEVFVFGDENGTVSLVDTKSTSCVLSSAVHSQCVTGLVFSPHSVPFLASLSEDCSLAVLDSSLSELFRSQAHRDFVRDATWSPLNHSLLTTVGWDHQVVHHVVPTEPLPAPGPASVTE
Chain of Full-length PRMT5 enzyme co-expressed with His6-MEP50 (O14744 whole entry): as the sequence (O14744 whole entry) above
Chain of Full-length PRMT5 enzyme co-expressed with His6-MEP50 (Q9BQA1 whole entry partner): as the sequence (Q9BQA1 whole entry partner) above

Compound	IC50 [1] [nM]	IC50 [2] [nM]	EC50 [3, 5] [nM]	EC50 [3, 6] [nM]	EC50 [4] [nM]
COc1ccc2c(c1)CN[C@H]([C@H](O)CNC(=O)c1ccc(C(=O)N3C4CCC3COC4)cc1)C2 [Example 2, 4-(3-Oxa-8-azabicyclo[3.2.1]octane-8-carbonyl)-N—((R)-2-hydroxy-2-((S)-7-methoxy-1,2,3,4-tetrahydroisoquinolin-3-yl)ethyl)benzamide]	18	0.4	0.62	126	17
CCOc1cc(C(=O)N2C3CCC2COC3)ccc1C(=O)NC[C@@H](O)[C@@H]1Cc2ccccc2CN1C [Example 3, 4-(3-Oxa-8-azabicyclo[3.2.1]octane-8-carbonyl)-2-ethoxy-N—((R)-2-hydroxy-2-((S)-2-methyl-1,2,3,4-tetrahydroisoquinolin-3-yl)ethyl)benzamide 2,2,2-trifluoroacetate]	1010	7.12	47	574	5440
